Data on 61 compounds can be found in ChEMBL document CHEMBL5729293, “Inhibitors of KEAP1-Nrf2 protein-protein interaction” (2022).

The Kd is the free concentration of one partner at which half of the binding sites on the other are occupied at equilibrium, for simple one-to-one binding.

The nature of the test: Fluorescence Based Assay: The details of the KEAP1 KELCH ThermoFluor® Assay Construct are as follows: Kelch domain of human KEAP 1 (321-624 aa) was used in the assay. The protein was expressed in E. coli with 6His tag that was cleaved prior to receipt for use.ThermoFluor® experiments were carried out using instruments owned by Janssen Research and Discovery, L.L.C. through its acquisition of 3-Dimensional Pharmaceuticals, Inc. 1,8-ANS (Invitrogen) was used as a fluorescent dye. Protein (KEAP Kelch) and compound solutions were dispensed into black 384-well polypropylene PCR microplates (Abgene) and overlayed with silicone oil (1 μL, Fluka, type DC 200) to prevent evaporation.Reference wells contained KEAP Kelch without compounds, and the assay conditions were as follows: 1.1 μM (0.037mg/mL) KEAP Kelch, 80 μM 1,8-ANS, 25 mM PIPES, pH 7.0, 100 mM NaCl, 0.002% Tween-20. (DSF heats the sample and reads unfolding from a dye or from intrinsic fluorescence.)
In the case of `Cc1ccc2c(n1)OC1(CC1)CN(Cc1cc([C@H](CC(=O)O)c3ccn4c(C(F)(F)F)nnc4c3C)ccc1C)S2(=O)=O`, the Kd is under 1 nM.

Compound `Cc1cnc2c(c1)S(=O)(=O)N(Cc1cc([C@@H](c3ccn4c(C(F)F)nnc4c3C)C(C)(C)C(=O)O)ccc1C)CC1(COC1)O2` gave a Kd of under 1 nM.

On to `CCn1nnc2c(C)c([C@H](c3cc(CN4CC5(CC5)Oc5ncc(C)cc5S4(=O)=O)c(C)cn3)C(C)(C)C(=O)O)ccc21`, for which the Kd was under 1 nM.

The compound `CCc1nnc2c(C)c([C@@H](CC(=O)O)c3ccc(C)c(CN4C[C@H]5CCCN5c5ncccc5S4(=O)=O)c3)ccn12` gave a Kd of under 1 nM.

The compound `Cc1ccc([C@H](CC(=O)O)c2ccn3c(C(F)(F)F)nnc3c2C)nc1CN1C[C@@H]2CCCCN2c2ncc(Cl)cc2S1(=O)=O` yielded a Kd of under 1 nM.

`Cc1ccc([C@@H](CC(=O)O)c2ccn3c(C(F)F)nnc3c2C)cc1CN1CC2(CC2)Oc2ncc(F)cc2S1(=O)=O` came in with a Kd of under 1 nM.

Take `Cc1ccc([C@@H](c2ccn3c(C(F)(F)F)nnc3c2C)C(C)(C)C(=O)O)cc1CN1CC2(CCOCC2)Oc2nc(N[C@H](C)CCO)ccc2S1(=O)=O`: the Kd is under 1 nM.

In turn, `Cc1ccc(C(CC(=O)O)c2ccc3c(nnn3C3CC3)c2C)cc1CN1C[C@@H]2CCCCN2c2ncccc2S1(=O)=O` (stereo partly specified) registered an equilibrium dissociation constant (Kd) of under 1 nM.

With `Cc1ccc(C(c2ccn3c(C(F)(F)F)nnc3c2C)C(C)C(=O)O)cc1CN1C[C@@H]2CCCCN2c2ncccc2S1(=O)=O` (stereo partly specified), the equilibrium dissociation constant (Kd) is under 1 nM.

`Cc1ccc(C(CC(=O)O)c2ccc3c(nnn3CC3CC3)c2C)cc1CN1C[C@@H]2CCCCN2c2ncccc2S1(=O)=O` (stereo partly specified) registered a Kd of under 1 nM.

For the compound `CC[C@@H]1CN(Cc2cc(C(CC(=O)O)c3ccn4c(C)nnc4c3)ccc2C)S(=O)(=O)c2cccnc2O1` (stereo partly specified), the Kd is under 1 nM.

Turning to `CCn1nnc2c(C)c([C@@H](c3cnc(C)c(CN4CC5(CCOCC5)Oc5ncc(C)cc5S4(=O)=O)c3)C(C)(C)C(=O)O)ccc21`, the dissociation constant (Kd) is under 1 nM.

In the case of `Cc1ccc([C@@H](CC(=O)O)c2ccn3c(C(F)F)nnc3c2C)cc1CN1CC2(CCOCC2)Oc2ncc(F)cc2S1(=O)=O`, the Kd was under 1 nM.

For the compound `Cc1ccc(C(CC(=O)O)c2ccn3c(C(F)F)nnc3c2C)cc1CN1C[C@@H]2CCCCN2c2ncccc2S1(=O)=O` (stereo partly specified), the Kd is under 1 nM.

As to `Cc1ccc(C(CC(=O)O)c2ccn3c(C(F)(F)F)nnc3c2C)cc1CN1CC(C)(C)Oc2ncccc2S1(=O)=O` (stereo unspecified), the Kd is under 1 nM.

As to `Cc1ccc([C@H](c2ccn3c(C(F)F)nnc3c2C)C(C)(C)C(=O)O)nc1CN1CC2(CC2)Oc2nc(OCCN3CCCCC3)c(C)cc2S1(=O)=O`, the Kd was under 1 nM.

On to `Cc1ccc([C@@H](CC(=O)O)c2ccn3c(C(F)F)nnc3c2C)cc1CN1CC2(CC2)Oc2ncc(Cl)cc2S1(=O)=O`, for which the Kd was under 1 nM.

Turning to `Cc1ccc([C@H](CC(=O)O)c2ccn3c(C(F)F)nnc3c2C)cc1CN1C[C@H]2CCCN2c2ncccc2S1(=O)=O`, the Kd was under 1 nM.

As for `Cc1ncc([C@H](c2ccn3c(C(F)(F)F)nnc3c2C)C(C)(C)C(=O)O)cc1CN1C[C@@H]2CCCCN2c2ncc(C#N)cc2S1(=O)=O`, the Kd is under 1 nM.

Turning to `Cc1ccc(C(CC(=O)O)c2ccn3c(C(F)(F)F)nnc3c2)cc1CN1C[C@@H]2CCCN2c2ncccc2S1(=O)=O` (stereo partly specified), the Kd is under 1 nM.

In turn, `Cc1cnc2c(c1)S(=O)(=O)N(Cc1cc([C@@H](c3ccn4c(C(F)F)nnc4c3C)C(C)(C)C(=O)O)ncc1C)CC1(CC1)O2` displayed a Kd of under 1 nM.

For the compound `Cc1ccc([C@@H](CC(=O)O)c2ccn3c(C(F)(F)F)nnc3c2C)nc1CN1CC2(COC2)Oc2ccccc2S1(=O)=O`, the Kd is under 1 nM.

As to `Cc1cnc2c(c1)S(=O)(=O)N(Cc1nc([C@H](CC(=O)O)c3ccn4c(C(F)(F)F)nnc4c3C)ccc1C)C[C@H]1CCCCN21`, the Kd is under 1 nM.

Turning to `CCn1nnc2c(C)c([C@@H](CC(=O)O)c3ccc(C)c(CN4C[C@H]5CCCN5c5ncccc5S4(=O)=O)n3)ccc21`, the Kd was under 1 nM.

`Cc1ccc(C(c2cc(C)n3c(C(F)(F)F)nnc3c2C)C(C)C(=O)O)cc1CN1C[C@@H]2CCCCN2c2ncccc2S1(=O)=O` (stereo partly specified): the dissociation constant (Kd) is under 1 nM.

As to `Cc1ccc([C@@H](CC(=O)O)c2ccn3c(C(F)(F)F)nnc3c2C)cc1CN1CC2(COC2)Oc2ncccc2S1(=O)=O`, the Kd was under 1 nM.

The compound `CCn1nnc2c(C)c([C@H](CC(=O)O)c3ccc(C)c(CN4C[C@@H]5CCCCN5c5ncccc5S4(=O)=O)n3)ccc21` showed an equilibrium dissociation constant (Kd) of under 1 nM.

`Cc1ccc(C(CC(=O)O)c2ccn3c(C(F)F)nnc3c2C)cc1CN1C[C@H]2CCCN2c2ncc(C#N)cc2S1(=O)=O` (stereo partly specified) came in with a Kd of under 1 nM.

In the case of `Cc1ccc([C@H](CC(=O)O)c2ccn3c(C(F)(F)F)nnc3c2C)cc1CN1C[C@H]2CCCN2c2ncc(C#N)cc2S1(=O)=O`, the Kd was under 1 nM.

On to `CCn1nnc2c(C)c(C(CC(=O)O)c3ccc(C)c(CN4C[C@@H]5CCCN5c5ncccc5S4(=O)=O)c3)ccc21` (stereo partly specified), for which the Kd was under 1 nM.

Consider `Cc1ccc([C@H](CC(=O)O)c2ccn3c(C(F)(F)F)nnc3c2C)cc1CN1C[C@H]2CCCCN2c2ccccc2S1(=O)=O`, for which the Kd is under 1 nM.

In turn, `Cc1cc2c(nc1OCCN1CCCC1)OC1(CC1)CN(Cc1cc([C@@H](c3ccc4c(nnn4C4CC4)c3C)C(C)(C)C(=O)O)cnc1C)S2(=O)=O` registered a Kd of under 1 nM.

As to `Cc1ccc([C@H](c2ccn3c(C(F)(F)F)nnc3c2C)C(C)(C)C(=O)O)cc1CN1CC2(CCOCC2)Oc2nc(NC(C)CN3CCCCC3)c(C)cc2S1(=O)=O` (stereo partly specified), the Kd was under 1 nM.

`Cc1c([C@H](CC(=O)O)c2ccc(Cl)c(CN3CC4CCCCN4c4ncc(F)cc4S3(=O)=O)c2)ccn2c(C(F)(F)F)nnc12` (stereo partly specified) displayed a Kd of under 1 nM.

Turning to `Cc1ccc([C@@H](CC(=O)O)c2ccc3c(nnn3CC3CC3)c2C)cc1CN1C[C@@H]2CCCCN2c2ncccc2S1(=O)=O`, the Kd was under 1 nM.

In the case of `Cc1ccc([C@H](c2ccn3c(C(F)(F)F)nnc3c2C)C(C)(C)C(=O)O)cc1CN1C[C@]2(CCOC2)Oc2ncccc2S1(=O)=O`, the Kd was under 1 nM.

`Cc1cnc2c(c1)S(=O)(=O)N(Cc1cc([C@H](CC(=O)O)c3ccn4c(C(F)(F)F)nnc4c3C)ccc1Cl)CC1CCCCN21` (stereo partly specified): the Kd is under 1 nM.

Compound `Cc1ccc([C@@H](CC(=O)O)c2ccn3c(C(F)(F)F)nnc3c2C)nc1CN1C[C@H]2CCCCN2c2ncc(C#N)cc2S1(=O)=O` returned a Kd of under 1 nM.

Regarding `Cc1ccc([C@@H](c2ccc3c(nnn3CC3CC3)c2C)C(C)(C)C(=O)O)cc1CN1CC2(CCOCC2)Oc2ncccc2S1(=O)=O`, the Kd was under 1 nM.

Consider `Cc1ccc([C@@H](c2ccn3c(C(F)(F)F)nnc3c2C)C(C)(C)C(=O)O)cc1CN1CC2(CC2)Oc2nc(OCCN3CCCC3)c(C)cc2S1(=O)=O`, for which the Kd was under 1 nM.

In the case of `Cc1ncc([C@@H](c2ccn3c(C(F)(F)F)nnc3c2C)C(C)(C)C(=O)O)cc1CN1C[C@@H]2CCCCN2c2ncc(C#N)cc2S1(=O)=O`, the Kd was under 1 nM.

`Cc1ccc([C@H](CC(=O)O)c2ccn3c(C(F)(F)F)nnc3c2C)cc1CN1C[C@H]2CCCN2c2ccccc2S1(=O)=O`: the Kd was under 1 nM.

The compound `Cc1ccc([C@H](CC(=O)O)c2ccc3c(nnn3CC3CC3)c2C)cc1CN1C[C@@H]2CCCCN2c2ncccc2S1(=O)=O` gave a Kd of under 1 nM.

For the compound `Cc1cnc([C@@H](c2ccn3c(C(F)F)nnc3c2C)C(C)(C)C(=O)O)cc1CN1CC2(CC2)Oc2nc(OCCN3CCCCC3)c(C)cc2S1(=O)=O`, the Kd was under 1 nM.

`CC[C@@H]1CN(Cc2cc(C(CC(=O)O)c3cc(OC(F)F)c4c(c3)nnn4C)ccc2C)S(=O)(=O)c2cccnc2O1` (stereo partly specified) gave a Kd of under 1 nM.

Take `Cc1ccc([C@@H](CC(=O)O)c2ccn3c(C(F)F)nnc3c2C)cc1CN1C[C@H]2CCCCN2c2ncc(C#N)cc2S1(=O)=O`: the Kd is under 1 nM.

For `Cc1cnc2c(c1)S(=O)(=O)N(Cc1cc([C@@H](c3ccc4c(nnn4C4CC4)c3C)C(C)(C)C(=O)O)cnc1C)CC1(COC1)O2`, the Kd is under 1 nM.

For `Cc1c([C@@H](CC(=O)O)c2ccc(Cl)c(CN3CC4CCCCN4c4ncc(F)cc4S3(=O)=O)c2)ccn2c(C(F)(F)F)nnc12` (stereo partly specified), the Kd is under 1 nM.

On to `Cc1ccc([C@H](c2ccn3c(C(F)F)nnc3c2C)C(C)(C)C(=O)O)nc1CN1CC2(CC2)Oc2nc(OCCN3CCCC3)c(C)cc2S1(=O)=O`, for which the Kd was under 1 nM.

As to `Cc1ccc([C@@H](CC(=O)O)c2ccc3c(nnn3CC3CC3)c2C)cc1CN1C[C@H]2CCCCN2c2ncccc2S1(=O)=O`, the Kd was under 1 nM.

Compound `Cc1ccc([C@H](CC(=O)O)c2ccc3c(nnn3C3CC3)c2C)cc1CN1CC2(COC2)Oc2ccccc2S1(=O)=O` displayed a Kd of under 1 nM.

`Cc1cnc2c(c1)S(=O)(=O)N(Cc1cc([C@@H](c3ccn4c(C5CC5)nnc4c3C)C(C)(C)C(=O)O)ccc1C)CC1(CC1)O2` had a Kd of under 1 nM.

`CCc1nnc2c(C)c([C@H](CC(=O)O)c3ccc(C)c(CN4C[C@H]5CCCN5c5ccccc5S4(=O)=O)c3)ccn12` showed a Kd of under 1 nM.

`Cc1ccc([C@H](CC(=O)O)c2ccn3c(C(F)(F)F)nnc3c2C)cc1CN1CC2(CC2)Oc2nc(NCCO)ccc2S1(=O)=O` registered a Kd of under 1 nM.

As for `Cc1ccc([C@@H](c2ccn3c(C(F)(F)F)nnc3c2C)C(C)(C)C(=O)O)cc1CN1CC2(CCOCC2)Oc2nc(O[C@H](C)CN3CCCCC3)c(C)cc2S1(=O)=O`, the Kd is under 1 nM.

Take `Cc1ccc(C(CC(=O)O)c2ccn3c(C(F)(F)F)nnc3c2C)cc1CN1C[C@H]2CCCN2c2ncccc2S1(=O)=O` (stereo partly specified): the Kd was under 1 nM.

Regarding `Cc1cnc2c(c1)S(=O)(=O)N(Cc1cc([C@H](c3ccn4c(C(F)(F)F)nnc4c3C)C(C)(C)C(=O)O)cnc1C)CC1(CCOCC1)O2`, the Kd was under 1 nM.

With `Cc1cnc2c(c1)S(=O)(=O)N(Cc1cc([C@@H](c3ccn4c(C(F)F)nnc4c3C)C(C)(C)C(=O)O)ccc1C)CC1(CC1)O2`, the Kd was under 1 nM.

The compound `Cc1ncc([C@H](c2ccn3c(C(F)(F)F)nnc3c2C)C(C)(C)C(=O)O)cc1CN1CC2(CCOCC2)Oc2ncccc2S1(=O)=O` yielded a dissociation constant (Kd) of under 1 nM.

Turning to `Cc1ccc(C(c2ccc3c(nnn3CC3CC3)c2C)C(C)(C)C(=O)O)nc1CN1CC2(CCOCC2)Oc2nc(OCCN3CCOCC3)ccc2S1(=O)=O` (stereo unspecified), the Kd was under 1 nM.

`Cc1ccc(C(CC(=O)O)c2ccn3c(C(F)(F)F)nnc3c2C)nc1CN1CC2(CC2)Oc2ncc(F)cc2S1(=O)=O` (stereo unspecified) came in with an equilibrium dissociation constant (Kd) of under 1 nM.
